Measured values reported in ChEMBL document CHEMBL5724914, “Linking interpersonal differences in gut microbiota composition and drug biotransformation activity” (2024).

Key:
[1] = (§1) The drug is tested on Z-020 corresponding to rabbit gut metagenome with ENA study accession number: PRJEB37062 and ENA sample accession number: ERS12561819 for biotransformation under anaerobic condition. The drug concentrations were measured over 9 timepoints collected between 0 and 24 hours of incubation by liquid-chromatography-coupled mass spectrometry (LC–MS); conditions: 2 µM
[2] = as §1, with “WLS-010” for “Z-020”, “human” for “rabbit”, “ERS12561743” for “ERS12561819”; conditions: 2 µM
[3] = human gut metagenome, 24 h, 2 µM
[4] = human gut metagenome, 24 h, 2 µM; remark: listed apart in the source
[5] = as §1, with “Z-003” for “Z-020”, “pig” for “rabbit”, “ERS12561803” for “ERS12561819”; conditions: 2 µM
[6] = human gut metagenome, 24 h, 2 µM; remark: listed apart in the source
[7] = human gut metagenome, 24 h, 2 µM; remark: listed apart in the source
[8] = as §1, with “WLS-069” for “Z-020”, “human” for “rabbit”, “ERS12561748” for “ERS12561819”; conditions: 2 µM
[9] = human gut metagenome, 24 h, 2 µM; remark: listed apart in the source
[10] = as §1, with “Z-013” for “Z-020”, “ERS12561813” for “ERS12561819”; conditions: 2 µM
[11] = as §1, with “Z-021” for “Z-020”, “to” for “to rabbit gut”, “ERS12561820” for “ERS12561819”; conditions: 2 µM
[12] = as §1, with “WLS-006” for “Z-020”, “human” for “rabbit”, “ERS12561741” for “ERS12561819”; conditions: 2 µM
[13] = human gut metagenome, 24 h, 2 µM; remark: listed apart in the source
[14] = human gut metagenome, 24 h, 2 µM; remark: listed apart in the source
[15] = as §1, with “Z-025” for “Z-020”, “ERS12561824” for “ERS12561819”; conditions: 2 µM
[16] = as §1, with “Z-006” for “Z-020”, “mouse” for “rabbit”, “ERS12561806” for “ERS12561819”; conditions: 2 µM
[17] = as §1, with “WLS-098” for “Z-020”, “human” for “rabbit”, “ERS12561754” for “ERS12561819”; conditions: 2 µM
[18] = as §1, with “Z-028” for “Z-020”, “mouse” for “rabbit”, “ERS12561827” for “ERS12561819”; conditions: 2 µM
[19] = human gut metagenome, 24 h, 2 µM; remark: listed apart in the source
[20] = human gut metagenome, 24 h, 2 µM; remark: listed apart in the source
Note: call rule not given here.

| Bacterial Biotransformation [1] | Bacterial Biotransformation [2] | Bacterial Biotransformation [3] | Bacterial Biotransformation [4] | Bacterial Biotransformation [5] | Bacterial Biotransformation [6] | Bacterial Biotransformation [7] | Bacterial Biotransformation [8] | Bacterial Biotransformation [9] | Bacterial Biotransformation [10] | Bacterial Biotransformation [11] | Bacterial Biotransformation [12] | Bacterial Biotransformation [13] | Bacterial Biotransformation [14] | Bacterial Biotransformation [15] | Bacterial Biotransformation [16] | Bacterial Biotransformation [17] | Bacterial Biotransformation [18] | Bacterial Biotransformation [19] | Bacterial Biotransformation [20] | SMILES |
| --- | --- | --- | --- | --- | --- | --- | --- | --- | --- | --- | --- | --- | --- | --- | --- | --- | --- | --- | --- | --- |
| Compound metabolized | Compound metabolized | Compound metabolized | Compound metabolized | Compound metabolized | Compound metabolized | Compound metabolized | Compound metabolized | Compound metabolized | Compound NOT metabolized | Compound metabolized | Compound metabolized | Compound metabolized | Compound metabolized | Compound NOT metabolized | Compound NOT metabolized | Compound metabolized | Compound metabolized | Compound metabolized | Compound metabolized | Cc1nc(-c2ccc(OCC(C)C)c(C#N)c2)sc1C(=O)O [FEBUXOSTAT] |
| Compound NOT metabolized | Compound NOT metabolized | Compound NOT metabolized | Compound NOT metabolized | Compound NOT metabolized | Compound NOT metabolized | Compound NOT metabolized | Compound NOT metabolized | Compound NOT metabolized | Compound NOT metabolized | Compound NOT metabolized | Compound NOT metabolized | Compound NOT metabolized | Compound NOT metabolized | Compound NOT metabolized | Compound NOT metabolized | Compound NOT metabolized | Compound NOT metabolized | Compound NOT metabolized | Compound NOT metabolized | CC(C)(C(=O)O)c1ccc(C(O)CCCN2CCC(C(O)(c3ccccc3)c3ccccc3)CC2)cc1 (stereo not given) [FEXOFENADINE] |
| Compound metabolized | Compound metabolized | Compound metabolized | Compound metabolized | Compound metabolized | Compound metabolized | Compound metabolized | Compound metabolized | Compound metabolized | Compound NOT metabolized | Compound NOT metabolized | Compound metabolized | Compound metabolized | Compound metabolized | Compound NOT metabolized | Compound metabolized | Compound metabolized | Compound metabolized | Compound metabolized | Compound metabolized | Cc1ccc(S(=O)(=O)NC(=O)NN2CC3CCCC3C2)cc1 (stereo not given) [GLICLAZIDE] |
| Compound NOT metabolized | Compound metabolized | Compound metabolized | Compound metabolized | Compound metabolized | Compound metabolized | Compound metabolized | Compound metabolized | Compound NOT metabolized | Compound metabolized | Compound metabolized | Compound metabolized | Compound NOT metabolized | Compound NOT metabolized | Compound metabolized | Compound metabolized | Compound NOT metabolized | Compound metabolized | Compound NOT metabolized | Compound metabolized | COC1=CC(=O)C[C@@H](C)[C@]12Oc1c(Cl)c(OC)cc(OC)c1C2=O [GRISEOFULVIN] |
| Compound NOT metabolized | Compound NOT metabolized | Compound NOT metabolized | Compound NOT metabolized | Compound NOT metabolized | Compound NOT metabolized | Compound NOT metabolized | Compound NOT metabolized | Compound NOT metabolized | Compound NOT metabolized | Compound metabolized | Compound NOT metabolized | Compound NOT metabolized | Compound NOT metabolized | Compound NOT metabolized | Compound NOT metabolized | Compound NOT metabolized | Compound NOT metabolized | Compound NOT metabolized | Compound NOT metabolized | N#Cc1ccc(C(c2ccc(C#N)cc2)n2cncn2)cc1 [LETROZOLE] |
| Compound NOT metabolized | Compound NOT metabolized | Compound NOT metabolized | Compound NOT metabolized | Compound NOT metabolized | Compound NOT metabolized | Compound metabolized | Compound NOT metabolized | Compound NOT metabolized | Compound NOT metabolized | Compound NOT metabolized | Compound NOT metabolized | Compound NOT metabolized | Compound NOT metabolized | Compound NOT metabolized | Compound NOT metabolized | Compound metabolized | Compound NOT metabolized | Compound NOT metabolized | Compound NOT metabolized | CC(Oc1c(Cl)cccc1Cl)C1=NCCN1 (stereo not given) [LOFEXIDINE] |

| SMILES | Bacterial Biotransformation [1] | Bacterial Biotransformation [2] | Bacterial Biotransformation [3] | Bacterial Biotransformation [4] | Bacterial Biotransformation [5] | Bacterial Biotransformation [6] | Bacterial Biotransformation [7] | Bacterial Biotransformation [8] | Bacterial Biotransformation [9] | Bacterial Biotransformation [10] | Bacterial Biotransformation [11] | Bacterial Biotransformation [12] | Bacterial Biotransformation [13] | Bacterial Biotransformation [14] | Bacterial Biotransformation [15] | Bacterial Biotransformation [16] | Bacterial Biotransformation [17] | Bacterial Biotransformation [18] | Bacterial Biotransformation [19] | Bacterial Biotransformation [20] |
| --- | --- | --- | --- | --- | --- | --- | --- | --- | --- | --- | --- | --- | --- | --- | --- | --- | --- | --- | --- | --- |
| COc1ccc2c3c1O[C@H]1C[C@@H](O)C=C[C@@]31CCN(C)C2 [GALANTAMINE] | Compound NOT metabolized | Compound metabolized | Compound NOT metabolized | Compound NOT metabolized | Compound NOT metabolized | Compound NOT metabolized | Compound NOT metabolized | Compound NOT metabolized | Compound NOT metabolized | Compound NOT metabolized | Compound NOT metabolized | Compound NOT metabolized | Compound NOT metabolized | Compound NOT metabolized | Compound NOT metabolized | Compound NOT metabolized | Compound metabolized | Compound NOT metabolized | Compound NOT metabolized | Compound NOT metabolized |
| CN(C)C(=O)C(CCN1CCC(O)(c2ccc(Cl)cc2)CC1)(c1ccccc1)c1ccccc1 [LOPERAMIDE] | Compound metabolized | Compound metabolized | Compound metabolized | Compound metabolized | Compound metabolized | Compound metabolized | Compound metabolized | Compound metabolized | Compound metabolized | Compound metabolized | Compound NOT metabolized | Compound metabolized | Compound metabolized | Compound metabolized | Compound metabolized | Compound metabolized | Compound metabolized | Compound metabolized | Compound metabolized | Compound metabolized |
